Results: ChEMBL document CHEMBL3232845 (Bioorg Med Chem Lett, 2014)

Legend:
[1] = biological target: T1, Cyclin-dependent kinase 5/CDK5 activator 1 (Homo sapiens) (UniProt Q00535+Q15078); assay: Inhibition of human CDK5/p25 assessed as enzyme activity at 1 uM relative to control; assay type: protein-complex assay; design: scale not given: the % may be the effect or the level left
[2] = biological target: Insulin receptor (Homo sapiens) (UniProt P06213); assay: Inhibition of human IR assessed as enzyme activity at 1 uM relative to control; design: scale not given: the % may be the effect or the level left
[3] = biological target: Protein-tyrosine kinase 2-beta (Homo sapiens) (UniProt Q14289); assay: Inhibition of human FAK2 assessed as enzyme activity at 1 uM relative to control; design: scale not given: the % may be the effect or the level left
[4] = biological target: Macrophage-stimulating protein receptor (Homo sapiens) (UniProt Q04912); assay: Inhibition of human Ron assessed as enzyme activity at 1 uM relative to control; design: scale not given: the % may be the effect or the level left
[5] = biological target: T1, Cyclin-dependent kinase 5/CDK5 activator 1 (Homo sapiens); assay: Inhibition of human CDK5/p35 assessed as enzyme activity at 1 uM relative to control; assay type: protein-complex assay; design: scale not given: the % may be the effect or the level left
[6] = biological target: Serine/threonine-protein kinase PLK1 (Homo sapiens) (UniProt P53350); assay: Inhibition of human Plk1 assessed as enzyme activity at 1 uM relative to control; design: scale not given: the % may be the effect or the level left
[7] = biological target: Serine/threonine-protein kinase D1 (Homo sapiens) (UniProt Q15139); assay: Inhibition of human PKD1 assessed as enzyme activity at 1 uM relative to control; design: scale not given: the % may be the effect or the level left
[8] = biological target: Dual specificity mitogen-activated protein kinase kinase 4 (Mus musculus) (UniProt P47809); assay: Inhibition of mouse MKK4 assessed as enzyme activity at 1 uM relative to control; design: scale not given: the % may be the effect or the level left
[9] = biological target: Tyrosine-protein kinase ABL2 (Homo sapiens) (UniProt P42684); assay: Inhibition of human Abl2 assessed as enzyme activity at 1 uM relative to control; design: scale not given: the % may be the effect or the level left
[10] = biological target: Serine/threonine-protein kinase Sgk1 (Homo sapiens) (UniProt O00141); assay: Inhibition of human SGK1 assessed as enzyme activity at 1 uM relative to control; design: scale not given: the % may be the effect or the level left
[11] = biological target: Serine/threonine-protein kinase PAK 4 (Homo sapiens) (UniProt O96013); assay: Inhibition of human PAK4 assessed as enzyme activity at 1 uM relative to control; design: scale not given: the % may be the effect or the level left
[12] = biological target: Ephrin type-A receptor 1 (Homo sapiens) (UniProt P21709); assay: Inhibition of human EphA1 assessed as enzyme activity at 1 uM relative to control; design: scale not given: the % may be the effect or the level left
[13] = biological target: Calcium/calmodulin-dependent protein kinase type IV (Homo sapiens) (UniProt Q16566); assay: Inhibition of human CAMK4 assessed as enzyme activity at 1 uM relative to control; design: scale not given: the % may be the effect or the level left
[14] = biological target: Inhibitor of nuclear factor kappa-B kinase subunit beta (Homo sapiens) (UniProt O14920); assay: Inhibition of human IKKbeta assessed as enzyme activity at 1 uM relative to control; design: scale not given: the % may be the effect or the level left
[15] = biological target: CDK7/Cyclin H/MNAT1 (Homo sapiens) (UniProt P51946+P50613+P51948); assay: Inhibition of human CDK7/cyclinH/MAT1 assessed as enzyme activity at 1 uM relative to control; assay type: protein-complex assay; design: scale not given: the % may be the effect or the level left
[16] = biological target: Dual specificity tyrosine-phosphorylation-regulated kinase 2 (Homo sapiens) (UniProt Q92630); assay: Inhibition of human DYRK2 assessed as enzyme activity at 1 uM relative to control; design: scale not given: the % may be the effect or the level left
[17] = biological target: Serine/threonine-protein kinase Sgk2 (Homo sapiens) (UniProt Q9HBY8); assay: Inhibition of human SGK2 assessed as enzyme activity at 1 uM relative to control; design: scale not given: the % may be the effect or the level left
[18] = Antitumor activity against human LOX cells expressing B-Raf V600E mutant xenografted in nude mouse assessed as tumor growth inhibition at 30 mg/kg qd for 4 days measured on day 8; assay type: functional; conditions: read-out: TGI
[19] = biological target: Death-associated protein kinase 1 (Homo sapiens) (UniProt P53355); assay: Inhibition of human DAPK1 assessed as enzyme activity at 1 uM relative to control; design: scale not given: the % may be the effect or the level left
[20] = Oral bioavailability in mouse at 30 mg/kg; assay type: ADME, organism-based; conditions: in vivo
[21] = biological target: Proto-oncogene tyrosine-protein kinase receptor Ret (Homo sapiens) (UniProt P07949); assay: Inhibition of human Ret assessed as enzyme activity at 1 uM relative to control; design: scale not given: the % may be the effect or the level left
[22] = biological target: Death-associated protein kinase 3 (Homo sapiens) (UniProt O43293); assay: Inhibition of human DAPK3 assessed as enzyme activity at 1 uM relative to control; design: scale not given: the % may be the effect or the level left
[23] = biological target: Serine/threonine-protein kinase tousled-like 2 (Homo sapiens) (UniProt Q86UE8); assay: Inhibition of human TLK2 assessed as enzyme activity at 1 uM relative to control; design: scale not given: the % may be the effect or the level left
[24] = biological target: MAP kinase-interacting serine/threonine-protein kinase 2 (Homo sapiens) (UniProt Q9HBH9); assay: Inhibition of human MKNK2 assessed as enzyme activity at 1 uM relative to control; design: scale not given: the % may be the effect or the level left
[25] = biological target: Casein kinase I isoform gamma-2 (Homo sapiens) (UniProt P78368); assay: Inhibition of human CK1gamma2 assessed as enzyme activity at 1 uM relative to control; design: scale not given: the % may be the effect or the level left
[26] = biological target: Receptor tyrosine-protein kinase erbB-4 (Homo sapiens) (UniProt Q15303); assay: Inhibition of human ErbB4 assessed as enzyme activity at 1 uM relative to control; design: scale not given: the % may be the effect or the level left
[27] = biological target: Testis-specific serine/threonine-protein kinase 2 (Homo sapiens) (UniProt Q96PF2); assay: Inhibition of human TSSK2 assessed as enzyme activity at 1 uM relative to control; design: scale not given: the % may be the effect or the level left
[28] = biological target: Serine/threonine-protein kinase TAO1 (Homo sapiens) (UniProt Q7L7X3); assay: Inhibition of human TAO1 assessed as enzyme activity at 1 uM relative to control; design: scale not given: the % may be the effect or the level left
[29] = biological target: Ephrin type-A receptor 8 (Homo sapiens) (UniProt P29322); assay: Inhibition of human EphA8 assessed as enzyme activity at 1 uM relative to control; design: scale not given: the % may be the effect or the level left
[30] = biological target: Serine/threonine-protein kinase pim-1 (Homo sapiens) (UniProt P11309); assay: Inhibition of human Pim-1 assessed as enzyme activity at 1 uM relative to control; design: scale not given: the % may be the effect or the level left
[31] = biological target: CDK9/cyclin T1 (Homo sapiens) (UniProt O60563+P50750); assay: Inhibition of human CDK9/cyclinT1 assessed as enzyme activity at 1 uM relative to control; assay type: protein-complex assay; design: scale not given: the % may be the effect or the level left
[32] = biological target: Activated CDC42 kinase 1 (Homo sapiens) (UniProt Q07912); assay: Inhibition of human TNK2 assessed as enzyme activity at 1 uM relative to control; design: scale not given: the % may be the effect or the level left
[33] = biological target: Macrophage colony-stimulating factor 1 receptor (Homo sapiens) (UniProt P07333); assay: Inhibition of human Fms assessed as enzyme activity at 1 uM relative to control; design: scale not given: the % may be the effect or the level left
[34] = biological target: Proto-oncogene tyrosine-protein kinase ROS (Homo sapiens) (UniProt P08922); assay: Inhibition of human Ros assessed as enzyme activity at 1 uM relative to control; design: scale not given: the % may be the effect or the level left
[35] = biological target: Tyrosine-protein kinase Mer (Homo sapiens) (UniProt Q12866); assay: Inhibition of human Mer assessed as enzyme activity at 1 uM relative to control; design: scale not given: the % may be the effect or the level left
[36] = biological target: Ephrin type-B receptor 1 (Homo sapiens) (UniProt P54762); assay: Inhibition of human EphB1 assessed as enzyme activity at 1 uM relative to control; design: scale not given: the % may be the effect or the level left
[37] = biological target: BDNF/NT-3 growth factors receptor (Homo sapiens) (UniProt Q16620); assay: Inhibition of human TrkB assessed as enzyme activity at 1 uM relative to control; design: scale not given: the % may be the effect or the level left
[38] = biological target: Mitogen-activated protein kinase 3 (Homo sapiens) (UniProt P27361); assay: Inhibition of human ERK1 assessed as enzyme activity at 1 uM relative to control; design: scale not given: the % may be the effect or the level left

T1 sequence (Q00535 whole entry): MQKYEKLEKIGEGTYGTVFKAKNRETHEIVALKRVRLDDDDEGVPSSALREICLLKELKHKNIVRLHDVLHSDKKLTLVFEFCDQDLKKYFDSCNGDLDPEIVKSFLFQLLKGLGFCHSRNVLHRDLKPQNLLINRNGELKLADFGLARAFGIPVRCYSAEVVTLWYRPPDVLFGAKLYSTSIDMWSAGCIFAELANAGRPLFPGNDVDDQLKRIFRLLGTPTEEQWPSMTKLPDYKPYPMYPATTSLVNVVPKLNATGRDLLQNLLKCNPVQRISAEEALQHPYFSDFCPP
T1 sequence (Q15078 99-307 partner limits assumed): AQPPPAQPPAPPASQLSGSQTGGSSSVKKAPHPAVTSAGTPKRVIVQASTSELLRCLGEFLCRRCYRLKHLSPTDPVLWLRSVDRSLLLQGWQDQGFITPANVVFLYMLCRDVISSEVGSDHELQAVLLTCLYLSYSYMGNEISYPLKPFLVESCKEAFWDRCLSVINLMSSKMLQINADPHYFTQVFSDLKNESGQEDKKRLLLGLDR
Chain of Tyrosine-protein kinase ABL2 (Homo sapiens) (P42684 whole entry): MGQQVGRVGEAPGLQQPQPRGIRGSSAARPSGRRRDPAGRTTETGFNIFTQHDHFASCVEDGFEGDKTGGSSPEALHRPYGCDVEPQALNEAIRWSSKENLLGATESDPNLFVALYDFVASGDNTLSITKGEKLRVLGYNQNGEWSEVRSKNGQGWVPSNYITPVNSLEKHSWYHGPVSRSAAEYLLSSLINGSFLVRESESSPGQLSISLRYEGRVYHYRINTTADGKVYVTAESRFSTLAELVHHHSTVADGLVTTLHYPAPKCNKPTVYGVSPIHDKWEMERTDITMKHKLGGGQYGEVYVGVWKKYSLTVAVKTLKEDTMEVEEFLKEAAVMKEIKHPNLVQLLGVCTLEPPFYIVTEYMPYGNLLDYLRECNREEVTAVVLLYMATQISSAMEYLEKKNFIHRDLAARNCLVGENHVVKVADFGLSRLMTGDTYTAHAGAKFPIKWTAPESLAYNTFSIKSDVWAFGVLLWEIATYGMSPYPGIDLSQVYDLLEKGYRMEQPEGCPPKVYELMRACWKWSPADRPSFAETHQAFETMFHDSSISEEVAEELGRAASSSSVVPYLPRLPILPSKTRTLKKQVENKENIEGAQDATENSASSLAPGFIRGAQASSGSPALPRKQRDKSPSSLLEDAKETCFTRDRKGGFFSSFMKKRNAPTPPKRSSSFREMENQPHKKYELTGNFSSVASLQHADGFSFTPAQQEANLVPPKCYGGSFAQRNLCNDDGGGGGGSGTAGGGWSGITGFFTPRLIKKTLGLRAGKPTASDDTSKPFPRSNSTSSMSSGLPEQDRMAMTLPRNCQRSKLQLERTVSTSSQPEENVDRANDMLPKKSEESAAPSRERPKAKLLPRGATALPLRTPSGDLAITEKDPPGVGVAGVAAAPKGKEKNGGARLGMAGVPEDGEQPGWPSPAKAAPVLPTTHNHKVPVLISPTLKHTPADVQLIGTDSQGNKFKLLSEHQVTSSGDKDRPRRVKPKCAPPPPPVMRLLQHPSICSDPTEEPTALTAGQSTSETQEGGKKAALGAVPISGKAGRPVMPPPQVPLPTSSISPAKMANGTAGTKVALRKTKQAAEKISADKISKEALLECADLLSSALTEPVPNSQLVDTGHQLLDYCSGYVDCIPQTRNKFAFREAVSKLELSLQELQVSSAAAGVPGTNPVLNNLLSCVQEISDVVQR
Chain of Insulin receptor (Homo sapiens) (P06213 28-758 limits assumed): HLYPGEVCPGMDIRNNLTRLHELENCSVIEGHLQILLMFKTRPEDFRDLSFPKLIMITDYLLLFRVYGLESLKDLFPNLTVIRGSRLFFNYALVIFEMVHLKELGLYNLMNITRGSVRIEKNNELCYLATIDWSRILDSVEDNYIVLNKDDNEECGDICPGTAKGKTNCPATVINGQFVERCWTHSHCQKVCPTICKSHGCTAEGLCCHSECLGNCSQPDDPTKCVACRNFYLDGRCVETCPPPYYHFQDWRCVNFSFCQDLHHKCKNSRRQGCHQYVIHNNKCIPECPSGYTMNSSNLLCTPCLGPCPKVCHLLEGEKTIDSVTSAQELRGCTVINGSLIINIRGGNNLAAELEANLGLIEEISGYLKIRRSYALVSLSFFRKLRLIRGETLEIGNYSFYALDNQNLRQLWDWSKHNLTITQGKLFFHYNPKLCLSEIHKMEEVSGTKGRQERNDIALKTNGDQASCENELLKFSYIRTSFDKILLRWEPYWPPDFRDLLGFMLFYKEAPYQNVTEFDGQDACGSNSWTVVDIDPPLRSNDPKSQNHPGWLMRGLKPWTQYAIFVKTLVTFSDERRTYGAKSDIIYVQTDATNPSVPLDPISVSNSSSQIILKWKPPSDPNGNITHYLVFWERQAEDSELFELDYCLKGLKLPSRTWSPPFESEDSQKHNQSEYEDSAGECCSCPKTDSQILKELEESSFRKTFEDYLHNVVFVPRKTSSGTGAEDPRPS
Chain of Insulin receptor (Homo sapiens) (P06213 763-1382 limits assumed): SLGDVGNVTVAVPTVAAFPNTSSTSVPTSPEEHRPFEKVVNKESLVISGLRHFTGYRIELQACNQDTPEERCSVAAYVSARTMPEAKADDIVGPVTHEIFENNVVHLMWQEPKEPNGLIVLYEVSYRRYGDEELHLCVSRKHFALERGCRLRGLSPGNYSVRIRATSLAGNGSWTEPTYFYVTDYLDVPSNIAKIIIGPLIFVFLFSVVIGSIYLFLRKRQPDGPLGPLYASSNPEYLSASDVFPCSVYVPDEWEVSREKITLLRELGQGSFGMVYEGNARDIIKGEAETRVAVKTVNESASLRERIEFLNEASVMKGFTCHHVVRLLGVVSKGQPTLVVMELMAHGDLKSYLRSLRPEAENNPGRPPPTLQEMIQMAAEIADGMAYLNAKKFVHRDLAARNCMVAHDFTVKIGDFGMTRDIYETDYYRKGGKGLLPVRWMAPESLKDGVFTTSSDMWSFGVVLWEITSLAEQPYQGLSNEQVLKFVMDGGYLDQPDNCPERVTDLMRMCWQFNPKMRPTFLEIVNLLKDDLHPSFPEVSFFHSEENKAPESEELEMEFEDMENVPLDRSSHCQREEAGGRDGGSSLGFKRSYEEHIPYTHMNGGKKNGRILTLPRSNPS
Chain of Serine/threonine-protein kinase Sgk1 (Homo sapiens) (O00141 whole entry): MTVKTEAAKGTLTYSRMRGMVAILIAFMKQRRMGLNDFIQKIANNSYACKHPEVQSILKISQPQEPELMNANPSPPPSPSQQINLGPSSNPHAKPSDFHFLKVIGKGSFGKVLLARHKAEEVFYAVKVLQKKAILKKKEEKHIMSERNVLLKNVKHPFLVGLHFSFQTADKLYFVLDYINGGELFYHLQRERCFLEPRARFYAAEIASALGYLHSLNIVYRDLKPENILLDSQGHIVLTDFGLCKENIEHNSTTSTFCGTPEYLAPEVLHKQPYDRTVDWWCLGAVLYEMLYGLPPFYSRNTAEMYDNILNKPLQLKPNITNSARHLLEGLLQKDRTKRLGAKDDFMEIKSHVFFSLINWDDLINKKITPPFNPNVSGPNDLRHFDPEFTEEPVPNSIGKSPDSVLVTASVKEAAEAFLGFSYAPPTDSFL
Chain of Serine/threonine-protein kinase pim-1 (Homo sapiens) (P11309 whole entry, looked up): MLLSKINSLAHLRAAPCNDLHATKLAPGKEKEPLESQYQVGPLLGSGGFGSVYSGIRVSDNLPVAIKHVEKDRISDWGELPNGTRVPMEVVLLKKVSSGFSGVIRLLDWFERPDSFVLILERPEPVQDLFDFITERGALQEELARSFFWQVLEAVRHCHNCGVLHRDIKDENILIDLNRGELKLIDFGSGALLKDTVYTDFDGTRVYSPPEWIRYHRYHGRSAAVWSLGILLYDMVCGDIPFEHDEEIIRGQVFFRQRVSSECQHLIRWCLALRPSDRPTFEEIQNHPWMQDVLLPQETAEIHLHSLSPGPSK
Chain of Proto-oncogene tyrosine-protein kinase receptor Ret (Homo sapiens) (P07949 whole entry): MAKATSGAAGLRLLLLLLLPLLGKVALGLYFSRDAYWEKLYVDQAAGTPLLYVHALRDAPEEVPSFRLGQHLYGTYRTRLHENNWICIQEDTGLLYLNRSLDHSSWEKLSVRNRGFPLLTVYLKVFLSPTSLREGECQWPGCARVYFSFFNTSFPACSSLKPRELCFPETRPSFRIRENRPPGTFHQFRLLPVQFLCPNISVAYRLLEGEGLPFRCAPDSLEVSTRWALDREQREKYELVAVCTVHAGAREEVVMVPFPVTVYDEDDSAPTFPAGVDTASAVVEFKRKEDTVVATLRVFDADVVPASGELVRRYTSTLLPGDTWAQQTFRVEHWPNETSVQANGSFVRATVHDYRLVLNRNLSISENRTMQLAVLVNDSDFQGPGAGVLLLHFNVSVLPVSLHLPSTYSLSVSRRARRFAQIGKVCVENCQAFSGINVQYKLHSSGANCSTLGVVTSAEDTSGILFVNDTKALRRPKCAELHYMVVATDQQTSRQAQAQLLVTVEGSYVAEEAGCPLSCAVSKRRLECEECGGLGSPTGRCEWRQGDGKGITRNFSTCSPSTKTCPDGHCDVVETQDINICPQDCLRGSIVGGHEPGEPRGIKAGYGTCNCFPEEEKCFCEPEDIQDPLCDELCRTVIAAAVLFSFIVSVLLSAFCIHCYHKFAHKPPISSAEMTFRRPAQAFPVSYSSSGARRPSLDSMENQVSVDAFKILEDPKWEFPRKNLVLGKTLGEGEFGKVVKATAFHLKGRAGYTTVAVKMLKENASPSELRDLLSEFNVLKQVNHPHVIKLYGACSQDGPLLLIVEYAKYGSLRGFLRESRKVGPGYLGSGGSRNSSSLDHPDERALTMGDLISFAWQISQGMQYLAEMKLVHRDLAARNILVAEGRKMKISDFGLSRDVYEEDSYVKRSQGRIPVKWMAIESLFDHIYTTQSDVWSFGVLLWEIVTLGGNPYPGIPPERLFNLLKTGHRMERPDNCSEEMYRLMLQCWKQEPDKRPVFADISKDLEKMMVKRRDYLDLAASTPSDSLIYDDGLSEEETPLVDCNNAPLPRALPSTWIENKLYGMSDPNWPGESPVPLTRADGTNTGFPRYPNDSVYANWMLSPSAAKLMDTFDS

CCCS(=O)(=O)Nc1cccc(Nc2ccc3ncn(C)c(=O)c3c2)c1C#N
Activity [1]: 102% | Activity [2]: 99.5% | Activity [3]: 85.5% | Activity [4]: 110% | Activity [5]: 114% | Activity [6]: 90.5% | Activity [7]: 127% | Activity [8]: 128% | Activity [9]: 108% | Activity [10]: 121% | Activity [11]: 92% | Activity [12]: 101% | Activity [13]: 98% | Activity [14]: 104% | Activity [15]: 104% | Activity [16]: 99% | Activity [17]: 109% | inhibition in vivo at 30 mg/kg [18]: 99% | Activity [19]: 102% | bioavailability [20]: 60% | Activity [21]: 98.5% | Activity [22]: 110% | Activity [23]: 104% | Activity [24]: 106% | Activity [25]: 99.5% | Activity [26]: 106% | Activity [27]: 118% | Activity [28]: 88.5% | Activity [29]: 96% | Activity [30]: 147% | Activity [31]: 104% | Activity [32]: 104% | Activity [33]: 99% | Activity [34]: 108% | Activity [35]: 89.5% | Activity [36]: 101% | Activity [37]: 86% | Activity [38]: 99%
